In US20220281848A1, “PYRAZOLE-SUBSTITUTED PYRROLIDINONES AS HERBICIDES” (FMC Corporation, priority 2019, published 2022):

Legend:
Type in all cases: in vivo
Conditions in all cases: 19 to 21 days
[1] = tested on: barnyardgrass (Echinochloa crus-galli); assay: Test B preemergence, barnyardgrass
Source text: (§1) Seeds of plant species selected from blackgrass (Alopecurus myosuroides), Italian ryegrass (Lolium multiflorum), wheat, winter (winter wheat, Triticum aestivum), corn (Zea mays), large (Lg) crabgrass (Digitaria sanguinalis), giant foxtail (Setaria faberi), johnsongrass (Sorghum halepense), ragweed (common ragweed, Ambrosia elatior), soybean (Glycine max), barnyardgrass (Echinochloa crus-galli), waterhemp (common waterhemp, Amaranthus rudis), palmer pigweed (Amaranthus palmeri), and surinam grass (Brachiaria decumbens), were planted into a silt loam soil and treated preemergence with test chemicals formulated in a non-phytotoxic solvent mixture which included a surfactant.
(§2) Treated plants and controls were maintained in a greenhouse for 19 to 21 days, after which time all species were compared to controls and visually evaluated. Plant response ratings, summarized in Table B, are based on a scale of 0 to 100 where 0 is no effect and 100 is complete control.

[2] = tested on: soybean (Glycine max); assay: Test B preemergence, soybean
Source text: as §1, §2

[3] = tested on: E. Black Nightshade (Solanum ptycanthum); assay: Test C preemergence, E. Black Nightshade
Source text: (§3) Seeds of plant species selected from corn (Zea mays), soybean (Glycine max), velvetleaf (Abutilon theophrasti), palmer pigweed (Amaranthus palmeri), waterhemp (common waterhemp, Amaranthus rudis), surinam grass (Brachiaria decumbens), large (Lg) crabgrass (Digitaria sanguinalis), fall panicum (Panicum dichotomiflorum), giant foxtail (Setaria faberi), ragweed (common ragweed, Ambrosia elatior), barnyardgrass (Echinochloa crus-galli), E. Black Nightshade (Solanum ptycanthum), and horseweed (Conyza canadensis), were planted into a silt loam soil and treated preemergence with test chemicals formulated in a non-phytotoxic solvent mixture which included a surfactant.
(§4) Treated plants and controls were maintained in a greenhouse for 19 to 21 days, after which time all species were compared to controls and visually evaluated. Plant response ratings, summarized in Table C, are based on a scale of 0 to 100 where 0 is no effect and 100 is complete control.

[4] = tested on: horseweed (Conyza canadensis); assay: Test C preemergence, horseweed
Source text: as §3, §4

[5] = tested on: fall panicum (Panicum dichotomiflorum); assay: Test C preemergence, fall panicum
Source text: as §3, §4

[6] = tested on: wheat, winter (winter wheat, Triticum aestivum); assay: Test B preemergence, wheat, winter
Source text: as §1, §2

[7] = tested on: giant foxtail (Setaria faberi); assay: Test B preemergence, giant foxtail
Source text: as §1, §2

[8] = tested on: surinam grass (Brachiaria decumbens); assay: Test C preemergence, surinam grass
Source text: as §3, §4

[9] = tested on: Italian ryegrass (Lolium multiflorum); assay: Test B preemergence, Italian ryegrass
Source text: as §1, §2

[10] = tested on: palmer pigweed (Amaranthus palmeri); assay: Test B preemergence, palmer pigweed
Source text: as §1, §2

[11] = tested on: palmer pigweed (Amaranthus palmeri); assay: Test C preemergence, palmer pigweed
Source text: as §3, §4

[12] = tested on: velvetleaf (Abutilon theophrasti); assay: Test C preemergence, velvetleaf
Source text: as §3, §4

[13] = tested on: waterhemp (common waterhemp, Amaranthus rudis); assay: Test C preemergence, waterhemp
Source text: as §3, §4

[14] = tested on: surinam grass (Brachiaria decumbens); assay: Test B preemergence, surinam grass
Source text: as §1, §2

[15] = tested on: corn (Zea mays); assay: Test C preemergence, corn
Source text: as §3, §4

[16] = tested on: blackgrass (Alopecurus myosuroides); assay: Test B preemergence, blackgrass
Source text: as §1, §2

[17] = tested on: ragweed (common ragweed, Ambrosia elatior); assay: Test C preemergence, ragweed
Source text: as §3, §4

[18] = tested on: corn (Zea mays); assay: Test B preemergence, corn
Source text: as §1, §2

[19] = tested on: waterhemp (common waterhemp, Amaranthus rudis); assay: Test B preemergence, waterhemp
Source text: as §1, §2

## CN1C[C@H](c2cc(C(F)(F)F)n(C)n2)[C@@H](C(=O)Nc2cccc(F)c2F)C1=O [Compound 13, (3S,4R)—N-(2,3-difluorophenyl)-1-methyl-4-[1-methyl-5-(trifluoromethyl)-1H-pyrazol-3-yl]-2-oxo-3-pyrrolidinecarboxamide]
[1]; 16 g ai/ha Preemergence
  Plant response rating (0 no effect, 100 complete control) Barnyardgrass: 85
[1]; 31 g ai/ha Preemergence
  Plant response rating (0 no effect, 100 complete control) Barnyardgrass: 95
[1]; 62 g ai/ha Preemergence
  Plant response rating (0 no effect, 100 complete control) Barnyardgrass: 95
[1]; 125 g ai/ha Preemergence
  Plant response rating (0 no effect, 100 complete control) Barnyardgrass: 97
[2]; 16 g ai/ha Preemergence
  Plant response rating (0 no effect, 100 complete control) Soybean: 0
[2]; 31 g ai/ha Preemergence
  Plant response rating (0 no effect, 100 complete control) Soybean: 0
[2]; 62 g ai/ha Preemergence
  Plant response rating (0 no effect, 100 complete control) Soybean: 0
[2]; 125 g ai/ha Preemergence
  Plant response rating (0 no effect, 100 complete control) Soybean: 8
[3]; 4 g ai/ha Preemergence
  Plant response rating (0 no effect, 100 complete control) Nightshade: 0
[3]; 8 g ai/ha Preemergence
  Plant response rating (0 no effect, 100 complete control) Nightshade: 0
[3]; 16 g ai/ha Preemergence
  Plant response rating (0 no effect, 100 complete control) Nightshade: 0
[3]; 31 g ai/ha Preemergence
  Plant response rating (0 no effect, 100 complete control) Nightshade: 0
[3]; 62 g ai/ha Preemergence
  Plant response rating (0 no effect, 100 complete control) Nightshade: 0
[3]; 125 g ai/ha Preemergence
  Plant response rating (0 no effect, 100 complete control) Nightshade: 63
[4]; 4 g ai/ha Preemergence
  Plant response rating (0 no effect, 100 complete control) Horseweed: 0
[4]; 8 g ai/ha Preemergence
  Plant response rating (0 no effect, 100 complete control) Horseweed: 0
[4]; 16 g ai/ha Preemergence
  Plant response rating (0 no effect, 100 complete control) Horseweed: 0
[4]; 31 g ai/ha Preemergence
  Plant response rating (0 no effect, 100 complete control) Horseweed: 30
[4]; 62 g ai/ha Preemergence
  Plant response rating (0 no effect, 100 complete control) Horseweed: 45
[4]; 125 g ai/ha Preemergence
  Plant response rating (0 no effect, 100 complete control) Horseweed: 65
[5]; 4 g ai/ha Preemergence
  Plant response rating (0 no effect, 100 complete control) Panicum: 0
[5]; 8 g ai/ha Preemergence
  Plant response rating (0 no effect, 100 complete control) Panicum: 0
[5]; 16 g ai/ha Preemergence
  Plant response rating (0 no effect, 100 complete control) Panicum: 0
[5]; 31 g ai/ha Preemergence
  Plant response rating (0 no effect, 100 complete control) Panicum: 0
[5]; 62 g ai/ha Preemergence
  Plant response rating (0 no effect, 100 complete control) Panicum: 53
[5]; 125 g ai/ha Preemergence
  Plant response rating (0 no effect, 100 complete control) Panicum: 48
[6]; 16 g ai/ha Preemergence
  Plant response rating (0 no effect, 100 complete control) Wheat: 3
[6]; 31 g ai/ha Preemergence
  Plant response rating (0 no effect, 100 complete control) Wheat: 20
[6]; 62 g ai/ha Preemergence
  Plant response rating (0 no effect, 100 complete control) Wheat: 40
[6]; 125 g ai/ha Preemergence
  Plant response rating (0 no effect, 100 complete control) Wheat: 63
[7]; 16 g ai/ha Preemergence
  Plant response rating (0 no effect, 100 complete control) Foxtail, Giant: 90
[7]; 31 g ai/ha Preemergence
  Plant response rating (0 no effect, 100 complete control) Foxtail, Giant: 95
[7]; 62 g ai/ha Preemergence
  Plant response rating (0 no effect, 100 complete control) Foxtail, Giant: 98
[7]; 125 g ai/ha Preemergence
  Plant response rating (0 no effect, 100 complete control) Foxtail, Giant: 98
[8]; 4 g ai/ha Preemergence
  Plant response rating (0 no effect, 100 complete control) Surinam Grass: 30
[8]; 8 g ai/ha Preemergence
  Plant response rating (0 no effect, 100 complete control) Surinam Grass: 30
[8]; 16 g ai/ha Preemergence
  Plant response rating (0 no effect, 100 complete control) Surinam Grass: 58
[8]; 31 g ai/ha Preemergence
  Plant response rating (0 no effect, 100 complete control) Surinam Grass: 90
[8]; 62 g ai/ha Preemergence
  Plant response rating (0 no effect, 100 complete control) Surinam Grass: 89
[8]; 125 g ai/ha Preemergence
  Plant response rating (0 no effect, 100 complete control) Surinam Grass: 99
[9]; 16 g ai/ha Preemergence
  Plant response rating (0 no effect, 100 complete control) Ryegrass, Italian: 0
[9]; 31 g ai/ha Preemergence
  Plant response rating (0 no effect, 100 complete control) Ryegrass, Italian: 25
[9]; 62 g ai/ha Preemergence
  Plant response rating (0 no effect, 100 complete control) Ryegrass, Italian: 65
[9]; 125 g ai/ha Preemergence
  Plant response rating (0 no effect, 100 complete control) Ryegrass, Italian: 92
[10]; 16 g ai/ha Preemergence
  Plant response rating (0 no effect, 100 complete control) Pigweed, Palmer: 0
[10]; 31 g ai/ha Preemergence
  Plant response rating (0 no effect, 100 complete control) Pigweed, Palmer: 0
[10]; 62 g ai/ha Preemergence
  Plant response rating (0 no effect, 100 complete control) Pigweed, Palmer: 0
[10]; 125 g ai/ha Preemergence
  Plant response rating (0 no effect, 100 complete control) Pigweed, Palmer: 0
[11]; 4 g ai/ha Preemergence
  Plant response rating (0 no effect, 100 complete control) Pigweed, Palmer: 0
[11]; 8 g ai/ha Preemergence
  Plant response rating (0 no effect, 100 complete control) Pigweed, Palmer: 0
[11]; 16 g ai/ha Preemergence
  Plant response rating (0 no effect, 100 complete control) Pigweed, Palmer: 0
[11]; 31 g ai/ha Preemergence
  Plant response rating (0 no effect, 100 complete control) Pigweed, Palmer: 0
[11]; 62 g ai/ha Preemergence
  Plant response rating (0 no effect, 100 complete control) Pigweed, Palmer: 0
[11]; 125 g ai/ha Preemergence
  Plant response rating (0 no effect, 100 complete control) Pigweed, Palmer: 28
[12]; 4 g ai/ha Preemergence
  Plant response rating (0 no effect, 100 complete control) Velvetleaf: 0
[12]; 8 g ai/ha Preemergence
  Plant response rating (0 no effect, 100 complete control) Velvetleaf: 0
[12]; 16 g ai/ha Preemergence
  Plant response rating (0 no effect, 100 complete control) Velvetleaf: 0
[12]; 31 g ai/ha Preemergence
  Plant response rating (0 no effect, 100 complete control) Velvetleaf: 0
[12]; 62 g ai/ha Preemergence
  Plant response rating (0 no effect, 100 complete control) Velvetleaf: 0
[12]; 125 g ai/ha Preemergence
  Plant response rating (0 no effect, 100 complete control) Velvetleaf: 0
[13]; 4 g ai/ha Preemergence
  Plant response rating (0 no effect, 100 complete control) Waterhemp: 0
[13]; 8 g ai/ha Preemergence
  Plant response rating (0 no effect, 100 complete control) Waterhemp: 0
[13]; 16 g ai/ha Preemergence
  Plant response rating (0 no effect, 100 complete control) Waterhemp: 0
[13]; 31 g ai/ha Preemergence
  Plant response rating (0 no effect, 100 complete control) Waterhemp: 0
[13]; 62 g ai/ha Preemergence
  Plant response rating (0 no effect, 100 complete control) Waterhemp: 20
[13]; 125 g ai/ha Preemergence
  Plant response rating (0 no effect, 100 complete control) Waterhemp: 20
[14]; 16 g ai/ha Preemergence
  Plant response rating (0 no effect, 100 complete control) Surinam Grass: 65
[14]; 31 g ai/ha Preemergence
  Plant response rating (0 no effect, 100 complete control) Surinam Grass: 78
[14]; 62 g ai/ha Preemergence
  Plant response rating (0 no effect, 100 complete control) Surinam Grass: 95
[14]; 125 g ai/ha Preemergence
  Plant response rating (0 no effect, 100 complete control) Surinam Grass: 93
[15]; 4 g ai/ha Preemergence
  Plant response rating (0 no effect, 100 complete control) Corn: 0
[15]; 8 g ai/ha Preemergence
  Plant response rating (0 no effect, 100 complete control) Corn: 0
[15]; 16 g ai/ha Preemergence
  Plant response rating (0 no effect, 100 complete control) Corn: 0
[15]; 31 g ai/ha Preemergence
  Plant response rating (0 no effect, 100 complete control) Corn: 0
[15]; 62 g ai/ha Preemergence
  Plant response rating (0 no effect, 100 complete control) Corn: 0
[15]; 125 g ai/ha Preemergence
  Plant response rating (0 no effect, 100 complete control) Corn: 15
[16]; 16 g ai/ha Preemergence
  Plant response rating (0 no effect, 100 complete control) Blackgrass: 0
[16]; 31 g ai/ha Preemergence
  Plant response rating (0 no effect, 100 complete control) Blackgrass: 0
[16]; 62 g ai/ha Preemergence
  Plant response rating (0 no effect, 100 complete control) Blackgrass: 13
[16]; 125 g ai/ha Preemergence
  Plant response rating (0 no effect, 100 complete control) Blackgrass: 18
[17]; 4 g ai/ha Preemergence
  Plant response rating (0 no effect, 100 complete control) Ragweed: 0
[17]; 8 g ai/ha Preemergence
  Plant response rating (0 no effect, 100 complete control) Ragweed: 0
[17]; 16 g ai/ha Preemergence
  Plant response rating (0 no effect, 100 complete control) Ragweed: 0
[17]; 31 g ai/ha Preemergence
  Plant response rating (0 no effect, 100 complete control) Ragweed: 0
[17]; 62 g ai/ha Preemergence
  Plant response rating (0 no effect, 100 complete control) Ragweed: 0
[17]; 125 g ai/ha Preemergence
  Plant response rating (0 no effect, 100 complete control) Ragweed: 0
[18]; 16 g ai/ha Preemergence
  Plant response rating (0 no effect, 100 complete control) Corn: 3
[18]; 31 g ai/ha Preemergence
  Plant response rating (0 no effect, 100 complete control) Corn: 5
[18]; 62 g ai/ha Preemergence
  Plant response rating (0 no effect, 100 complete control) Corn: 13
[18]; 125 g ai/ha Preemergence
  Plant response rating (0 no effect, 100 complete control) Corn: 48
[19]; 16 g ai/ha Preemergence
  Plant response rating (0 no effect, 100 complete control) Waterhemp: 0
[19]; 31 g ai/ha Preemergence
  Plant response rating (0 no effect, 100 complete control) Waterhemp: 0
[19]; 62 g ai/ha Preemergence
  Plant response rating (0 no effect, 100 complete control) Waterhemp: 0
[19]; 125 g ai/ha Preemergence
  Plant response rating (0 no effect, 100 complete control) Waterhemp: 15
